Measurements from US20260216057A1, “PHARMACEUTICAL COMPOSITIONS FOR HERPES VIRUS” (priority 2022, published 2026).

Key:
[1] = Injection site observation in Example 7 Compound 1 PK studies; format: in vivo, rat, monkey, dog; conditions: SC Compound 1 depot formulations, Example 7, 3 species
Procedure: The suspension was then dosed to male SD rats at 10 mg/kg according to the Example 2 animal dosing method. The suspension was then dosed to male cyno monkeys at 10 mg/kg according to the Example 3 animal dosing method. The suspension was then dosed to male non-naïve beagle dogs at 10 mg/kg according to the Example 4 animal dosing method.

[2] = Example 10: Compound 1 (Form A) aqueous suspension SC PK study in rat; format: in vivo, male Sprague Dawley rats; conditions: 10 mg/kg
Procedure: An aqueous suspension of Compound 1 free form (crystalline Form A) in a 0.9% NaCl+0.5% polysorbate 80 vehicle at a concentration of 3 mg/mL was prepared as follows: • 1) Vehicle (0.9% w/w NaCl and 0.5% w/w polysorbate 80) was prepared by dissolving NaCl and polysorbate 80 in water. • 2) An appropriate amount of Compound 1 free form was weighed and added to the vehicle. • 3) The mixture was vortexed for 1 minute, stirred for 10 minutes and then sonicated for 15 minutes. • 4) The final dosing formulation was a homogenous white cloudy suspension.
Male Sprague Dawley (SD) rats with ~230-250 g body weight (ages 6-8 weeks) were used for the pharmacokinetic study. The animals had free access to food and water.
The Compound 1 suspension described above was administered via sub-cutaneous injection to each animal group (n=3) with a dosing volume of 3.33 mL/kg to achieve a 10 mg/kg dose.
At each time point, approximately 200 μL whole blood was collected in a K2EDTA tube via the jugular vein. Blood samples were put on ice and centrifuged at 2000 g for 5 min to obtain a plasma sample within 15 minutes. Plasma samples were stored at approximately −70° C. until analyzed by LC-MS.

[3] = Example 17: Compound 1 (Form C) microsuspension and nanosuspension SC and IM PK study in rat; format: in vivo, male Sprague Dawley rats; conditions: for prolonged exposure for (length of the study): 20 mg/animal (~80 mg/kg), micro- and nano-suspensions (Form C), both formulations
Procedure: The LC-MS methodology and conditions used to analyse Compound 1 in rat plasma samples from the PK study described in Example 17 are given in Table 10.
An aqueous microsuspension of crystalline Compound 1 free form (crystalline Form C) in a 20 mg/mL PVP K30, 10 mg/mL poloxamer 188 and 50 mg/mL mannitol vehicle at a concentration of 200 mg/mL was prepared as follows: • 1) Crystalline Compound 1 (Form C) was jet milled to obtain microparticles (Dv90<10 μm). • 2) Jet milled material was dispersed in 20 mg/ml PVP K30+10 mg/ml Poloxamer 188+50 mg/ml mannitol to obtain a homogeneous suspension. • 3) The suspension was subjected to freeze drying to obtain a freeze-dried powder. • 4) Appropriate amounts of freeze-dried powder (based on assay) were weighed and added to water to obtain a 200 mg/ml suspension. • 5) The mixture was stirred for 5 minutes. • 6) The final dosing formulation was a homogenous white cloudy suspension.
An aqueous nano-suspension of crystalline Compound 1 free form (crystalline Form C) in a 20 mg/mL PVP K30, 10 mg/mL poloxamer 188 and 50 mg/mL mannitol vehicle at a concentration of 200 mg/mL was prepared as follows: • 1) 20 mg/mL crystalline Compound 1 (Form C) was dispersed into a solution of 2 mg/mL PVP K30 1.0 mg/mL poloxamer 188 and 5 mg/mL mannitol • 2) The suspension was subjected to high pressure homogenizer until the size was around 1 μm. • 3) After particle size reduction, the suspension was subjected to freeze drying to obtain a freeze-dried powder. • 4) The freeze-dried powder was reconstituted with water to obtain a 100 mg/mL suspension. • 5) The suspension was wet milled (10:1 0.1 mm zirconium oxide milling beads: Compound 1) at 900 rpm for 600 minutes to reduce particle size to nanosized particles (Dv90<200 nm). • 6) This nanosuspension was subjected to freeze drying to obtain a freeze-dried powder. • 7) Appropriate amounts of freeze-dried powder (based on assay) were weighed and added to water to obtain a 200 mg/ml suspension. • 8) The mixture was stirred for 10 minutes. • 9) The final dosing formulation was a homogenous white cloudy suspension.
Male Sprague Dawley (SD) rats with ~230-250 g body weight (aged 6-8 weeks) were used for the pharmacokinetic study. The animals had free access to food and water. The Compound 1 solution described above was administered via sub-cutaneous or intra-muscular injection to each animal group (n=3) with a dosing volume of 0.1 mL/animal (~0.4 mL/kg) to achieve a 20 mg/animal dose (~80 mg/kg).
At each time point, approximately 150 μL whole blood was collected in a K2EDTA tube via the jugular vein. Blood samples were put on ice and centrifuged at 2000 g for 5 min to obtain a plasma sample within 15 minutes. Plasma samples were stored at approximately −70° C. until analyzed by LC-MS.

[4] = Injection site observation in pritelivir PK studies (Examples 1-4); format: in vivo, rat, monkey, dog; conditions: SC pritelivir depot formulations, Examples 1-4, 3 species
Procedure: Male Sprague Dawley (SD) rats with ~300 g body weight (ages 6-8 weeks) were used for the pharmacokinetic study. The animals had free access to food and water. The pritelivir suspensions described above were administered via sub-cutaneous injection to each animal group (n=3) with a dosing volume of 3.33 mL/kg to achieve 33.33 mg/kg and 166.67 mg/kg doses.
Male SD rats with 230-250 g body weight, ages 6-8 weeks were used for the rat PK study. The animals had free access to food and water. The prepared suspension was administered via subcutaneous injection to each animal group (n=3) with a dosing volume of 3.33 mL/kg to achieve a 10 mg/kg dose.
Male non-naïve Cyno Monkeys with −5 kg body weight was used for the monkey PK study. The animals had free access to food and water. The prepared suspension was administered via subcutaneous injection to each animal group (n=3) with a dosing volume of 3.33 mL/kg to achieve a 10 mg/kg dose.
Male non-naïve beagles were used for the dog PK study. The animals had free access to food and water. The prepared suspension was administered via subcutaneous injection to each animal group (n=3) with a dosing volume of 2 mL/kg to achieve a 10 mg/kg dose.

[5] = test system: HSV-2; conditions: Field et al. (2013); read-out: in-vitro EC50 against HSV-2; cited from earlier work

In the case of `Cc1nc(N2CCCN(c3ccc(-c4cc(F)ccc4F)cc3)C2=O)sc1S(N)(=O)=O` [Compound 1, 2-(3-(2′,5′-difluoro-[1,1′-biphenyl]-4-yl)-2-oxotetrahydropyrimidin-1(2H)-yl)-4-methylthiazole-5-sulfonamide], the “adverse reactions at the injection sites” value [1] is reported as “no adverse reactions observed”, the “prolonged exposure out to” value [2] is reported as “at least 58 days” and the “variability in plasma concentrations” value [2] is reported as “low”. For the same molecule, the “plasma levels, intramuscular compared with subcutaneous injection” value ([3]; 20 mg/animal, micro- and nano-suspensions) was “plasma levels were higher than those achieved by these formulations when administered by subcutaneous injection”, the “plasma levels, nanosuspension compared with microsuspension” value ([3]; intramuscular, 20 mg/animal) was “nanosuspension provided higher plasma levels than the microsuspension” and the “prolonged exposure for (length of the study)” value ([3]; intramuscular) was “at least 600 hours”. For the same molecule, the “adverse reactions at the injection sites” value ([3]; intramuscular, micro- and nano-suspensions) was “no adverse reactions observed”, the “prolonged exposure for (length of the study)” value ([3]; subcutaneous) was “at least 600 hours” and the “plasma levels, nanosuspension compared with microsuspension” value ([3]; subcutaneous, 20 mg/animal, throughout the test period) was “nanosuspension provided higher plasma levels than the microsuspension”. For the same molecule, the “adverse reactions at the injection sites” value ([3]; subcutaneous, micro- and nano-suspensions) was “no adverse reactions observed”.

For `Cc1nc(N(C)C(=O)Cc2ccc(-c3ccccn3)cc2)sc1S(N)(=O)=O` [pritelivir, N-methyl-N-(4-methyl-5-sulfamoyl-1,3-thiazol-2-yl)-2-[4-(pyridin-2-yl)phenyl]acetamide], the “adverse reactions at the injection sites” value [4] is listed as “no adverse reactions observed” and the EC50 [5] is listed as 0.029 µM.
